Experimental data as given in EP0100673A2, “A method of enhancing neurofiber regrowth” (THE RESEARCH FOUNDATION OF STATE UNIVERSITY OF NEW YORK, priority 1982, dated 1984).

Assays:
Type in all cases: in vivo, rat
sciatic nerve [1] = test: Counts of myelinated and unmyelinated axons 5.0 mm distal to repair by electron microscopy; conditions: Electron Microscopy
Experimental: (§1) lwenty raty art anenthetizve with sel rompun (0.5 cc total volume). The right sciatic nerve is exposed and severed with microneuroscissors, and subsequently repaired microsurgically with 6-8 circumferential microsutures using 10-0 nylon. Immediately following surgery the treated animals receive 12 mg/kg Ac leupeptin in 5% DMSO (dimethylsulphoxide) as a bath on their sciatic nerve, 0.25 cc. total volume. Then the treated animals are injected intramuscularly in right hindlimb with 0.25 cc of a solution containing 12 mg/kg Ac leupeptin in 5% DMSO. Control animals receive the same surgical treatment, but the bath and intramuscular injection consist only of the solvent and 5% DMSO.
(§2) Thereafter, treated animals are injected twice weekly in the operated hindlimb with 12 mg/kg Ac leupeptin in 5% DMSO (0.25 cc total volume) for periods of 1 week, 1 month, two months, three months - and six months. Control animals are injected with 0.25 cc of 5% DMSO twice weekly in the operated hindlimb for the same time period.
(§3) Two treated and two control animals are assigned to each of the stated time periods.
(§4) A ten mm. portion of the repaired sciatic nerve is excised from each animal. This is fixed in 3.0% glutaraldehyde in 0.1 M sodium cacodylate, pH 7.3, overnight for electron microscopy. After post-fixation in 1.0% osmium tetroxide, ethanol dehydration and embedding in Polybed 812, both thick (1 micron) and thin (500 A°) transverse sections are cut on a ultramicrotome. Portions of the excised muscles receive similar preparation for electron microscopy.
(§5) Thick sections of the sciatic nerve are placed on microscope slots stained with toluidine blue and photographed at a constant magnification in the light microscope. Thin sections of both nerve and muscles are placed on 300 mesh copper grid calm, stained with uranyl acetate and lead citrate and photographed using a Hitachi HU-12 electron microscope.

[2] = tested on: muscles of the operated hindlimb; test: Myofiber diameter by light microscopy after sciatic nerve severing and microsurgical repair; conditions: for Average Myofiber Diameter (µm) by Light Microscopy: 12 mg/kg in 5% DMSO, bath + i.m. twice weekly; for % Difference Treated vs. Control: myofiber diameter
Experimental: as §1, §2, §3
All animals are sacrified by an overdose of pentobarbital, 1.0 cc total volume. The gastro- cnemius, soleus and extensor digitorum longus muscles of the operated hindlimb are execised from origin to insertion, weighed and then frozen in isopentane in liquid nitrogen […]. For light microscopy, cryostat sections are cut, placed on slides and stained with hematoxylin and eosin and/or ATPase histochemistry at pH's of 4.3 and 10.4. Myofiber diameters are determined by photographing hematoxylin and eosin sections at a constant magnification in the light microscope.

sciatic nerve [3] = test: Counts of myelinated axons 5.0 mm proximal to repair by light microscopy; conditions: for Counts of Myelinated Axons - 5.0mm. Proximal to Repair by Light Microscopy 1.0 X 10^5 µm^2 - of Area: 12 mg/kg in 5% DMSO, bath + i.m. twice weekly; for % Difference: treated vs. control
Experimental: as §1, §2, §3, §4, §5

**Q.** With `CC(=O)N[C@@H](CC(C)C)C(=O)N[C@@H](CC(C)C)C(=O)N[C@H](C=O)CCCNC(=N)N` [Ac leupeptin, acetyl-L-leu-L-leu-L-argininal] as the compound, how does the “% Difference Treated vs. Control” value (sciatic nerve [1]; #Myelinated Axons distal, One month) read?
**A.** Its value is 25%.

**Q.** What about the “% Difference Treated vs. Control” value (sciatic nerve [1]; #Myelinated Axons distal, One week) of the same compound?
**A.** The value was 53%.

**Q.** What about the “% Difference Treated vs. Control” value (sciatic nerve [1]; #Myelinated Axons distal, Six Month) of the same compound?
**A.** Its value is 1%.

**Q.** What about the “% Difference Treated vs. Control” value (sciatic nerve [1]; #Myelinated Axons distal, Three month) of the same compound?
**A.** Its value is 58%.

**Q.** What about the “% Difference Treated vs. Control” value (sciatic nerve [1]; #Myelinated Axons distal, Two Month) of the same compound?
**A.** The value was 0%.

**Q.** What about the “% Difference Treated vs. Control” value (sciatic nerve [1]; #Unmyelinated Axons distal, One month) of the same compound?
**A.** The value was 70%.

**Q.** What about the “% Difference Treated vs. Control” value (sciatic nerve [1]; #Unmyelinated Axons distal, One week) of the same compound?
**A.** The value was greater than 100%.

**Q.** And the “% Difference Treated vs. Control” value (sciatic nerve [1]; #Unmyelinated Axons distal, Six Month)?
**A.** The value was “+30%”.

**Q.** And the “% Difference Treated vs. Control” value (sciatic nerve [1]; #Unmyelinated Axons distal, Three month)?
**A.** Its value is 61%.

**Q.** And the “% Difference Treated vs. Control” value (sciatic nerve [1]; #Unmyelinated Axons distal, Two Month)?
**A.** The value was 50%.

**Q.** And the “Average Myofiber Diameter (µm) by Light Microscopy” value (from here on “Average Myofiber Diameter (µm)”) ([2]; One Month Treated, E.D.L.)?
**A.** Its value is 34.1 µm.

**Q.** And the “Average Myofiber Diameter (µm)” value ([2]; One Month Treated, GASTROCNEMIUS)?
**A.** Its value is 34.5 µm.

**Q.** What about the “Average Myofiber Diameter (µm)” value ([2]; One Month Treated, SOLEUS) of the same compound?
**A.** Its value is 39.4 µm.

**Q.** And the “Average Myofiber Diameter (µm)” value ([2]; One Week Treated, E.D.L.)?
**A.** The value was 44.6 µm.

**Q.** What about the “Average Myofiber Diameter (µm)” value ([2]; One Week Treated, GASTROCNEMIUS) of the same compound?
**A.** Its value is 62.3 µm.

**Q.** And the “Average Myofiber Diameter (µm)” value ([2]; One Week Treated, SOLEUS)?
**A.** Its value is 49.2 µm.

**Q.** And the “Average Myofiber Diameter (µm)” value ([2]; Six Month Treated, E.D.L.)?
**A.** The value was 75.3 µm.

**Q.** What about the “Average Myofiber Diameter (µm)” value ([2]; Six Month Treated, GASTROCNEMIUS) of the same compound?
**A.** Its value is 73.1 µm.

**Q.** And the “Average Myofiber Diameter (µm)” value ([2]; Six Month Treated, SOLEUS)?
**A.** The value was 79.5 µm.

**Q.** And the “Average Myofiber Diameter (µm)” value ([2]; Three Month Treated, E.D.L.)?
**A.** The value was 44.3 µm.

**Q.** What about the “Average Myofiber Diameter (µm)” value ([2]; Three Month Treated, GASTROCNEMIUS) of the same compound?
**A.** Its value is 57.2 µm.

**Q.** And the “Average Myofiber Diameter (µm)” value ([2]; Three Month Treated, SOLEUS)?
**A.** The value was 47.9 µm.

**Q.** And the “Average Myofiber Diameter (µm)” value ([2]; Two Month Treated, E.D.L.)?
**A.** The value was 28.9 µm.

**Q.** What about the “Average Myofiber Diameter (µm)” value ([2]; Two Month Treated, GASTROCNEMIUS) of the same compound?
**A.** Its value is 35.4 µm.

**Q.** What about the “Average Myofiber Diameter (µm)” value ([2]; Two Month Treated, SOLEUS) of the same compound?
**A.** Its value is 42.3 µm.

**Q.** And the “% Difference Treated vs. Control” value ([2]; One Month, E.D.L.)?
**A.** The value was “+7%”.

**Q.** What about the “% Difference Treated vs. Control” value ([2]; One Month, GASTROCNEMIUS) of the same compound?
**A.** Its value is “+3%”.

**Q.** What about the “% Difference Treated vs. Control” value ([2]; One Month, SOLEUS) of the same compound?
**A.** Its value is “+24%”.

**Q.** What about the “% Difference Treated vs. Control” value ([2]; One Week, E.D.L.) of the same compound?
**A.** Its value is “+5%”.

**Q.** What about the “% Difference Treated vs. Control” value ([2]; One Week, GASTROCNEMIUS) of the same compound?
**A.** The value was “+23%”.

**Q.** What about the “% Difference Treated vs. Control” value ([2]; One Week, SOLEUS) of the same compound?
**A.** The value was “+9%”.

**Q.** What about the “% Difference Treated vs. Control” value ([2]; Six Month, E.D.L.) of the same compound?
**A.** The value was “+29%”.

**Q.** And the “% Difference Treated vs. Control” value ([2]; Six Month, GASTROCNEMIUS)?
**A.** Its value is “+26%”.

**Q.** And the “% Difference Treated vs. Control” value ([2]; Six Month, SOLEUS)?
**A.** The value was “+30%”.

**Q.** And the “% Difference Treated vs. Control” value ([2]; Three Month, E.D.L.)?
**A.** The value was “+18%”.

**Q.** What about the “% Difference Treated vs. Control” value ([2]; Three Month, GASTROCNEMIUS) of the same compound?
**A.** The value was “+3%”.

**Q.** And the “% Difference Treated vs. Control” value ([2]; Three Month, SOLEUS)?
**A.** The value was “+9%”.

**Q.** And the “% Difference Treated vs. Control” value ([2]; Two Month, E.D.L.)?
**A.** Its value is “+10%”.

**Q.** What about the “% Difference Treated vs. Control” value ([2]; Two Month, GASTROCNEMIUS) of the same compound?
**A.** The value was “+18%”.

**Q.** What about the “% Difference Treated vs. Control” value ([2]; Two Month, SOLEUS) of the same compound?
**A.** Its value is “+10%”.

**Q.** And the myofiber diameter ([2]; treated muscle compared to control)?
**A.** Its myofiber diameter is “significantly greater myofiber diameter when compared to control”.

**Q.** And the “Counts of Myelinated Axons - 5.0mm. Proximal to Repair by Light Microscopy 1.0 X 10^5 µm^2 - of Area” value (shortened to “Counts of Myelinated Axons”) (sciatic nerve [3]; One Month Treated)?
**A.** Its value is 1162 1.0 X 10^5 µm^2 - of Area.

**Q.** And the “Counts of Myelinated Axons” value (sciatic nerve [3]; One Week Treated)?
**A.** The value was 1089 1.0 X 10^5 µm^2 - of Area.

**Q.** And the “Counts of Myelinated Axons” value (sciatic nerve [3]; Six Month Treated)?
**A.** Its value is 1748 1.0 X 10^5 µm^2 - of Area.

**Q.** And the “Counts of Myelinated Axons” value (sciatic nerve [3]; Three Month Treated)?
**A.** Its value is 2200 1.0 X 10^5 µm^2 - of Area.

**Q.** What about the “Counts of Myelinated Axons” value (sciatic nerve [3]; Two Month Treated) of the same compound?
**A.** The value was 1111 1.0 X 10^5 µm^2 - of Area.

**Q.** What about the “% Difference Treated Vs. Control” value (sciatic nerve [3]; myelinated axons proximal, light microscopy, One Month) of the same compound?
**A.** Its value is “+7%”.

**Q.** And the “% Difference Treated vs. Control” value (sciatic nerve [3]; myelinated axons proximal, light microscopy, One Week)?
**A.** The value was “+16%”.

**Q.** And the “% Difference Treated vs. Control” value (sciatic nerve [3]; myelinated axons proximal, light microscopy, Six Month)?
**A.** Its value is “+30%”.

**Q.** What about the “% Difference” value (sciatic nerve [3]; myelinated axons proximal, light microscopy, Three Month) of the same compound?
**A.** Its value is “+46%”.

**Q.** And the “% Difference” value (sciatic nerve [3]; myelinated axons proximal, light microscopy, Two Month)?
**A.** The value was “+8%”.
